Active and inactive are the calls of the source.
Assays:
[1] = THP-1 cell cytotoxicity, dose response, cytotoxicity control for non-replicating M. tuberculosis project (AID 489025); format: functional
[2] = cells; format: functional
[3] = system: H9c2; assay: cells; format: functional, cell-based; settings: Rattus norvegicus, H9c2, Myocardium;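 further: confirmatory concentration-response retest of ultra-high-throughput screening hits for modulation of myocardial damage; cell death induced by hydrogen peroxide oxidative stress; compound pretreatment for 60 min then peroxide exposure for 2 h; potency is for protecting the cells against peroxide damage rather than for killing them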
[4] = target: T1, Aminopeptidase N (Plasmodium falciparum FcB1/Columbia, UniProt O96935); assay: P. falciparum M1AAP inhibitors, biochemical, fluorogenic H-Leu-NHMec substrate, 1536-well (AID 1445); set-up: species or system Plasmodium falciparum 3D7, 3D7
T1 sequence (O96935 whole entry): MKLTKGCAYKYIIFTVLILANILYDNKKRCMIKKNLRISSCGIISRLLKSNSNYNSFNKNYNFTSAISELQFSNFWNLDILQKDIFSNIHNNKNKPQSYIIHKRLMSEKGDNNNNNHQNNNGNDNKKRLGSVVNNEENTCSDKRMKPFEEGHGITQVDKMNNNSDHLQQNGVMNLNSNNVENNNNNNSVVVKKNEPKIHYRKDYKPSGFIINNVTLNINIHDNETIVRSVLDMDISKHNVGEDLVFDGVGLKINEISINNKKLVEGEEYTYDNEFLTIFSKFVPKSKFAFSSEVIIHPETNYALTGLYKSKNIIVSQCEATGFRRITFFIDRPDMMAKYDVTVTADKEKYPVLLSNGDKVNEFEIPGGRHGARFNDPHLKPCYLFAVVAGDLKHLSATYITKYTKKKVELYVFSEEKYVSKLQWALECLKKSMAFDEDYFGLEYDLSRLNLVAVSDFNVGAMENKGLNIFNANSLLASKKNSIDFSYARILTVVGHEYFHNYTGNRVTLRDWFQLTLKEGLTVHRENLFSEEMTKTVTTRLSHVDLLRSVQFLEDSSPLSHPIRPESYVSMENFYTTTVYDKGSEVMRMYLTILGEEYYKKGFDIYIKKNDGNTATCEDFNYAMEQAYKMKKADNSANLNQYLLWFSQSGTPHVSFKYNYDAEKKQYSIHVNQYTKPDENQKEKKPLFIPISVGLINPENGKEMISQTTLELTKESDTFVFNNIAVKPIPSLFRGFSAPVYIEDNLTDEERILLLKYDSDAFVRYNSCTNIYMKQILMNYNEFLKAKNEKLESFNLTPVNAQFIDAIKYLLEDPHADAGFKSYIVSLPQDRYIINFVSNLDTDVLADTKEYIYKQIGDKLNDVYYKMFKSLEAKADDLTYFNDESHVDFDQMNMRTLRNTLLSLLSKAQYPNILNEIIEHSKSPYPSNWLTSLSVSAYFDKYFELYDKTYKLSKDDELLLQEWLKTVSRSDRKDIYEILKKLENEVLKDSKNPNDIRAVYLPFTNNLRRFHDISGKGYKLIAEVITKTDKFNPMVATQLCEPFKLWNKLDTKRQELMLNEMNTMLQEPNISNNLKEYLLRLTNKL

[5] = Luminescence Cell-Based Dose Response to Identify Activators of 5'UTR Stem-Loop Driven Prion Protein mRNA Translation in H4-C Neuroglioblastoma Cells. [Related pubchem assays: 1829 (Project Summary), 1814 (Primary HTS)]; format: functional
[6] = Luminescence Cell-Based Dose Confirmation HTS to Identify Activators of 5'UTR Stem-Loop Driven Alpha-Synuclein mRNA Translation in H4 Neuroglioblastoma Cells. [Related pubchem assays: 1829 (Project Summary), 1814 (Primary HTS)]; format: functional
[7] = Luminescence Cell-Based Dose Response HTS to Identify Activators of Luciferase Translation or Activity in H4 […] Cells. [Related pubchem assays: 1829 (Project Summary), 1814 (Primary HTS)]; format: functional
[8] = system: H4; assay: Luminescence Cell-Based Dose Response HTS to Identify Activators of 5'UTR Stem-Loop Driven Prion Protein mRNA Translation in H4 Neuroglioblastoma Cells. [Related pubchem assays: 1829 (Project Summary), 1814 (Primary HTS)]; format: functional; settings: Homo sapiens
[9] = Luminescence Cell-Based Dose Response to Identify Activators of Luciferase Translation or Activity in H4-C Neuroglioblastoma Cells. [Related pubchem assays: 1829 (Project Summary), 1814 (Primary HTS)]; format: functional
[10] = Luminescence Cell-Based Dose Confirmation to Identify Activators of 5'UTR Stem-Loop Driven Alpha-Synuclein mRNA Translation in H4 Neuroglioblastoma Cells. [Related pubchem assays: 1829 (Project Summary), 1814 (Primary HTS)]; format: functional
[11] = target: T2, Bcl-2-like protein 10 (Homo sapiens, UniProt Q9HD36); assay: displacers of TR3 peptide from Bcl-B, primary screen, selectivity assay for Bfl-1 inhibitor project, biochemical, fluorescence polarization, FITC-TR3 peptide (AID 748);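 further: fluorescence polarization from a fluorescein-labelled TR3 peptide binding purified Bcl-B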
T2 sequence (Q9HD36 whole entry): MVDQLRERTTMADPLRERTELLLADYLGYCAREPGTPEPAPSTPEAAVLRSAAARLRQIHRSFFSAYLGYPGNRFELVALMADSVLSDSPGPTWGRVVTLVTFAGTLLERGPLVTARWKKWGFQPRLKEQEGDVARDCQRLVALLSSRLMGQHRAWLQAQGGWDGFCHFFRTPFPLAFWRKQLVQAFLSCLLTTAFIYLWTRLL

[12] = HepG2 cell cytotoxicity, dose response, cytotoxicity control for non-replicating M. tuberculosis project (AID 489018); format: functional; settings: Mycobacterium tuberculosis
[13] = system: INS1; assay: beta cell apoptosis inhibitors, cytokine rescue, dose response, luminescence, retest (AID 449756); format: functional, cell-based; settings: Rattus norvegicus;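 further: cell death triggered by IL-1 beta plus TNF-alpha plus IFN-gamma mixture; protective hits raise ATP signal compared with cytokine alone wells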
[14] = target: T3, Fatty acid synthase (Homo sapiens, UniProt P49327); assay: FAS thioesterase domain inhibitors, dose response, biochemical, endpoint fluorescence intensity, uHTS hits (AID 624327); format: functional;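 further: fluorescence from hydrolysis of an O-methyl fluorescein acyl ester substrate by the enzyme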
[15] = target: T3, Fatty acid synthase; assay: FAS thioesterase domain inhibitors, dose response, biochemical, kinetic fluorescence intensity (AID 624326); format: functional;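 further: rate of fluorescence rise from hydrolysis of a fluorogenic O-methyl fluorescein ester substrate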
[16] = target: T4, Heat shock factor protein 1 (Mus musculus, UniProt P38532); assay: HSF1 potentiators in luciferase reporter cells, confirmation, cell-based, NIH3T3, luminescence, dose retest (AID 435004); format: functional;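 further: stress induced by proteasome inhibitor MG132 added 30 min after compound; luciferase reporter driven by HSF1 response element in NIH3T3 cells; actives raise luminescence as potentiators of the MG132 stress response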
T4 sequence (P38532 whole entry): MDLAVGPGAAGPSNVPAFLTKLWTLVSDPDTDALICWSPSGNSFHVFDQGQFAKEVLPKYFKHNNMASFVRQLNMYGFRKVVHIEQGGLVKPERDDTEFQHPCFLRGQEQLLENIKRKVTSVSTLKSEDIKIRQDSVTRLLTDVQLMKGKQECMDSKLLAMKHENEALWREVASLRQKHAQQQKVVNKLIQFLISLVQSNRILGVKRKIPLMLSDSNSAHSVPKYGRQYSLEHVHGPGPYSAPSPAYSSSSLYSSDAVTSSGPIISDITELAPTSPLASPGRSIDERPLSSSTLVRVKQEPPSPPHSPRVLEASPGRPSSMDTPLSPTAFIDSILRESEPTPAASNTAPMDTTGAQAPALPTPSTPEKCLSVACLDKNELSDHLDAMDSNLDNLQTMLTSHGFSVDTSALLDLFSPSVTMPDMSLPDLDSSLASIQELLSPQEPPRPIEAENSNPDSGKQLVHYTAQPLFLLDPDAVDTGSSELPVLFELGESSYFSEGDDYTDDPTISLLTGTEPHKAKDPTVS

[17] = Luminescence-based cell-based high throughput dose response assay to identify activators of the DAF-12 from the parasite S. stercoralis (ssDAF-12).; format: functional
[18] = target: T5, Oxysterols receptor LXR-beta (Homo sapiens, UniProt P55055); assay: LXR agonists, Gal4 luciferase reporter, dose response, counter-screen for ssDAF-12 agonist project, cell-based, luminescence, HEK293, S. stercoralis campaign (AID 720737); format: functional; settings: read-out: IC50 (the source's name)
T5 sequence (P55055 whole entry): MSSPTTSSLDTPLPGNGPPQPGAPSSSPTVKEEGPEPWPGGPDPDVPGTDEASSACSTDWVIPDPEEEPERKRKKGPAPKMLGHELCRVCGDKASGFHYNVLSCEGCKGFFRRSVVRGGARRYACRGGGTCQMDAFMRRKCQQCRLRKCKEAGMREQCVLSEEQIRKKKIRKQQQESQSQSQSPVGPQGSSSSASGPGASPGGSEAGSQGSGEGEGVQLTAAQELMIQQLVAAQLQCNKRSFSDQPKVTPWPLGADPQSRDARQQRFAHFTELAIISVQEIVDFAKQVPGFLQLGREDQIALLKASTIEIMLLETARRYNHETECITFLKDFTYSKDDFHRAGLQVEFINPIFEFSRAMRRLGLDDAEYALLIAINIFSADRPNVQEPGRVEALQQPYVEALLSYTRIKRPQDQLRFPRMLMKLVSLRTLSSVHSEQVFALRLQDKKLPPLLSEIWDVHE

[19] = target: G-protein coupled receptor 55 (Homo sapiens, UniProt Q9Y2T6); assay: GPR55 antagonists blocking LPI-driven arrestin recruitment, primary screen, imaging, U2OS, beta-arrestin-GFP, LPI agonist (AID 2013); format: functional;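 further: antagonist potency measured as reduced agonist-driven arrestin aggregation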
[20] = target: Eukaryotic translation initiation factor 4E (Mus musculus, UniProt P63073); assay: eIF4E–eIF4G protein interaction inhibitors, dose response, biochemical, TR-FRET (AID 855); format: functional;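 further: potency for disrupting eIF4E binding to eIF4GI seen as loss of FRET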
[21] = NIH-3T3 fibroblast cytotoxicity, dose response, cytotoxicity control, cell-based, fluorescence, Alamar Blue, secondary assay (AID 2327); format: functional;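 further: NIH-3T3 mouse fibroblasts cultured with fluconazole at 8 µg/mL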
[22] = inhibitors of firefly luciferase expression or activity, dose response, H4 neuroglioma cells, luminescence (AID 1990); format: functional, cell-based
[23] = Luminescence Cell-Based Dose Response HTS to Identify Inhibitors of 5'UTR Stem-Loop Driven Prion Protein mRNA Translation in H4 Neuroglioblastoma Cells. [Related pubchem assays: 1827 (Project Summary), 1813 (Primary HTS)]; format: functional
[24] = inhibitors of SNCA 5'UTR-driven reporter translation, confirmation, H4 neuroglioma cells, luminescence (AID 1988); format: functional, cell-based
[25] = C. albicans growth with fluconazole, confirmation, fluorescence, retest (AID 2467); format: functional, cell-based
[26] = target: DNA dC->dU-editing enzyme APOBEC-3A (Homo sapiens, UniProt P31941); assay: Dose Response confirmation of small molecule APOBEC3A DNA Deaminase Inhibitors via a fluorescence-based single-stranded DNA deaminase assay. [Related pubchem assays (depositor defined):AID493011, AID493024]; format: functional
[27] = cytotoxicity in HEK-293T cells, dose response, cytotoxicity control for TCR NF-kB inhibitor project, luminescence, T-cell screen hits (AID 489026); format: functional, cell-based;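 further: cells exposed to compound about 14 hours before the viability readout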
[28] = target: DNA dC->dU-editing enzyme APOBEC-3G (Homo sapiens, UniProt Q9HC16); format: functional;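 further: Dose-response counterscreen measuring inhibition of APOBEC3G DNA deaminase activity, run while confirming APOBEC3A inhibitors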
Sequence of DNA dC->dU-editing enzyme APOBEC-3G (Q9HC16 whole entry): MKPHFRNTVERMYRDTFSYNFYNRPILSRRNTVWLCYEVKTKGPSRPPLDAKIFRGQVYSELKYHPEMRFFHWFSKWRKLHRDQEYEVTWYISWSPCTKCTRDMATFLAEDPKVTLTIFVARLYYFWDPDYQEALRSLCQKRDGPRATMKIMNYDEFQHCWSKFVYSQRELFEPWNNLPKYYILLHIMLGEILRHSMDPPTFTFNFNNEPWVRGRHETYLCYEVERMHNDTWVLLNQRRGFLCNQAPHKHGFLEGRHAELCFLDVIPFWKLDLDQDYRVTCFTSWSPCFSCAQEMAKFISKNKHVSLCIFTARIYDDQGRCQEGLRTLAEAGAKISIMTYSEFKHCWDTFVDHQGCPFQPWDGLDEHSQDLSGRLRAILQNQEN

Sequence of DNA dC->dU-editing enzyme APOBEC-3A (P31941 whole entry): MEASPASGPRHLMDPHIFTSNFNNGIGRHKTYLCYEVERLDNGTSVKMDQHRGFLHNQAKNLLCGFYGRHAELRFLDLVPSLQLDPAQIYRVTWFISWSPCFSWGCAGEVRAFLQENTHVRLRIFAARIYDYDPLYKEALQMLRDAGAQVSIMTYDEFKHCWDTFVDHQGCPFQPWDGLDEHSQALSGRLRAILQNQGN
Sequence of Eukaryotic translation initiation factor 4E (P63073 whole entry): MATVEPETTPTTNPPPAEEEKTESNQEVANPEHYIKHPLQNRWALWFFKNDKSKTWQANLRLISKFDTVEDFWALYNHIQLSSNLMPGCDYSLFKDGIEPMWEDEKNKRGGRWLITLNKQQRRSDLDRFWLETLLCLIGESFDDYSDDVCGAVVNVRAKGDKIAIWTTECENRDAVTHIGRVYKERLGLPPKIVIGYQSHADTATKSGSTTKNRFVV
T3 sequence (P49327 whole entry, the tested form may be a part): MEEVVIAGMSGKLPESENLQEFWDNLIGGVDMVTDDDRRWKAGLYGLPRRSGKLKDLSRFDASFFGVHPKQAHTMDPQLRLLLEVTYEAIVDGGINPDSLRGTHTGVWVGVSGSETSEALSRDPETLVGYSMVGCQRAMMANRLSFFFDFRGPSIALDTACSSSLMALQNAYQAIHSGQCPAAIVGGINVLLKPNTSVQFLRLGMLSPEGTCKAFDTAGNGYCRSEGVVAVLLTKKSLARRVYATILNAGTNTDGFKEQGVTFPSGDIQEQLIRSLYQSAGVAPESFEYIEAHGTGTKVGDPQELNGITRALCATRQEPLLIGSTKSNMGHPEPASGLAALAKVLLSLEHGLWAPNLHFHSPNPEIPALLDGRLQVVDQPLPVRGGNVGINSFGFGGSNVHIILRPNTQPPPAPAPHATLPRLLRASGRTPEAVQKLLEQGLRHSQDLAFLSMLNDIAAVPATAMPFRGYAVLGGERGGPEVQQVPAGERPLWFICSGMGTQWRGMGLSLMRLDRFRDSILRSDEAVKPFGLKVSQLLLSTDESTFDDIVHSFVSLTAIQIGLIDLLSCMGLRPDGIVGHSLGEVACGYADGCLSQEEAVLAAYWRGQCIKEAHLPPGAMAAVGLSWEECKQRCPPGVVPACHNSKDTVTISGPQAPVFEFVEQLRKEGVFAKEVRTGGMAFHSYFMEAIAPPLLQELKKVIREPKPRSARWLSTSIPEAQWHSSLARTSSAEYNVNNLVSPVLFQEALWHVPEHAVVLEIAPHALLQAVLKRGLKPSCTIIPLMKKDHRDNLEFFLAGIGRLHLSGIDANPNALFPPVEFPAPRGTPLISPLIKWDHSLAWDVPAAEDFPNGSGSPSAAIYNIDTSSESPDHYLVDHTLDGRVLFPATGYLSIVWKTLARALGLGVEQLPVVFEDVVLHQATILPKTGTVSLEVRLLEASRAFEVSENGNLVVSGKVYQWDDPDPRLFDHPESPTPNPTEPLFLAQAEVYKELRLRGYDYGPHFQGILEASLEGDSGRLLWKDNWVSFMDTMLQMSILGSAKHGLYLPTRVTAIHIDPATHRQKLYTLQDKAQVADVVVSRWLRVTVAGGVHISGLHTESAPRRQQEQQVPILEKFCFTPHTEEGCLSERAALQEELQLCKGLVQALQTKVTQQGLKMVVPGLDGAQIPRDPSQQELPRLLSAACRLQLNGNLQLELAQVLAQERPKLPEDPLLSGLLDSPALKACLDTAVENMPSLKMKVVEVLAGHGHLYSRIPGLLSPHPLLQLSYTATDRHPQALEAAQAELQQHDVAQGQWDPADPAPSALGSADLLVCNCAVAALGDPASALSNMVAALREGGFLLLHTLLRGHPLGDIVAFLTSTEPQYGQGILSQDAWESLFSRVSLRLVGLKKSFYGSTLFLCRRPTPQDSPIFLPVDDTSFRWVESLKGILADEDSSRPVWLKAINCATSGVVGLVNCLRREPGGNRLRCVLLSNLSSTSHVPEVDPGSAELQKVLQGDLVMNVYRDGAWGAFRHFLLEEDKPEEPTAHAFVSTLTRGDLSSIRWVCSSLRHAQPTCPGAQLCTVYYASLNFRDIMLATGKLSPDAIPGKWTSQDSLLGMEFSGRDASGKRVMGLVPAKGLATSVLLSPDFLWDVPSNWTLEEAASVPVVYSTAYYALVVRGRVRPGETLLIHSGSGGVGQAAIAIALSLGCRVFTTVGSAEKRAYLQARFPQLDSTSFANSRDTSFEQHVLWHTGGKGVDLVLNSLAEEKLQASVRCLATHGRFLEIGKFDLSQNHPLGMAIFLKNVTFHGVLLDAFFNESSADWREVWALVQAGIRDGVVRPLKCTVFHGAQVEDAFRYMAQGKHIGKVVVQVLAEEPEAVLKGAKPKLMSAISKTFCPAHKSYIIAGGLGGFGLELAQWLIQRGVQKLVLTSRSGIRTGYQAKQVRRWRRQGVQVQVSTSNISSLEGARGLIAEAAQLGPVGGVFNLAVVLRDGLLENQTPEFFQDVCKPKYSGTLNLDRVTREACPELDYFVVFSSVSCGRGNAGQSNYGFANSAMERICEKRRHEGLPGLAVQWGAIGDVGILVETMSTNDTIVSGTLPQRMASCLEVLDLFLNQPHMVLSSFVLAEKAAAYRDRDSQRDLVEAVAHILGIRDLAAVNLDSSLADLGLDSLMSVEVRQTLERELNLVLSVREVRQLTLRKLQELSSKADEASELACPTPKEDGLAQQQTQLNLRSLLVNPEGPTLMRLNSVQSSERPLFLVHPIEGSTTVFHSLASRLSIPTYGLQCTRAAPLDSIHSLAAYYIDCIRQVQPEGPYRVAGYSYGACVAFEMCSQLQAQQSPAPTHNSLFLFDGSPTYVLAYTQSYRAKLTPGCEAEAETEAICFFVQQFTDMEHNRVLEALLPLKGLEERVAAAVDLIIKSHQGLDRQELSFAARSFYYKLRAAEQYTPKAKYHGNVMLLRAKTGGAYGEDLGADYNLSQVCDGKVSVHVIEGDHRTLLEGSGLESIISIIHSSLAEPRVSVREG
Sequence of G-protein coupled receptor 55 (Q9Y2T6 whole entry): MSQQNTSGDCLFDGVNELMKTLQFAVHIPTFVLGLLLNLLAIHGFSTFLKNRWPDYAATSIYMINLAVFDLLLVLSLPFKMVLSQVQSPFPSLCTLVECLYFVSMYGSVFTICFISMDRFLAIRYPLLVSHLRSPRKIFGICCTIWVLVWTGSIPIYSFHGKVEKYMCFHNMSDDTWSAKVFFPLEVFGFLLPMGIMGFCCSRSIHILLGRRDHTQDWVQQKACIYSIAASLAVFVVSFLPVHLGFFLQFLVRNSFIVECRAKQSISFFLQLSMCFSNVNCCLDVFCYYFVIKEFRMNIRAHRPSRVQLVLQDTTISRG

SMILES: O=C(COc1ccc(F)cc1)N/N=C/c1cccc2cccnc12
- CC50 [1]: 24.8 µM (active)
- IC50 [2]: 17.2 µM (active)
- IC50 [3]: 20.8 µM (active)

SMILES: Cc1ccc(S(=O)(=O)Nc2nc3ccc(S(=O)(=O)N4CCCC4)cc3s2)cc1
- IC50 [4]: 53.5 µM (active)

SMILES: O=C(C[n+]1cc(-c2ccc(F)cc2)n2c1CCC2)c1cccs1
- EC50 [5]: 1.06 µM (active)
- EC50 [6]: < 0.1 µM (active)
- EC50 [7]: 0.136 µM (inconclusive)
- EC50 [8]: 29.9 µM (inconclusive)
- EC50 [9]: > 12 µM (not active)
- EC50 [10]: 3.26 µM (active)

SMILES: Cc1cccc(OCC(=O)Nc2ccc(S(=O)(=O)N3CCCC3)cc2)c1
- IC50 [11]: > 100 µM (inactive)

SMILES: O=C(NNC1=C(C(=O)C(F)(F)F)CCC1)c1ccccc1Cl
- CC50 [1]: 13.6 µM (active)
- CC50 [12]: > 20 µM (active)

SMILES: O=C(CNC(=O)c1ccccc1)N/N=C/c1cc(Br)ccc1O
- IC50 [4]: 22.6 µM (active)
- AC50 [13]: 3.5 µM (active)
- IC50 [14]: 12.7 µM (active)
- IC50 [15]: 10.2 µM (active)

SMILES: CCC(C)Sc1nc2c3ccccc3nc-2c(O)n1C (centres undefined)
- EC50 [16]: > 260 µM (inactive)
- IC50 [17]: > 67.5 µM (inactive)
- EC50 [18]: > 67.5 µM (inactive)

SMILES: CCCCCn1c(C(Cc2ccccc2)NC(C)=O)nc2ccccc21 (centres undefined)
- IC50 [19]: 4.08 µM (active)

SMILES: O=C(CN1CCC(NC(=O)c2cccc(F)c2)CC1)Nc1ccc(Br)cc1
- IC50 [2]: 47.8 µM (active)

SMILES: Clc1ccc2nc(CN3CCCc4ccccc43)cn2c1
- IC50 [11]: 72.5 µM (inactive)

SMILES: COc1ccc(CC(=O)Nc2ccc(-c3nnc(-c4ccccc4)o3)cc2)cc1OC
- IC50 [20]: > 64 µM (inactive)

SMILES: CC[n+]1cc(C)ccc1C=Cc1ccc(N(C)C)cc1
- EC50 [21]: 58.6 µM (active)
- EC50 [22]: 11.7 µM (active)
- EC50 [23]: 65.4 µM (active)
- EC50 [24]: 10.4 µM (active)
- EC50 [25]: 1.25 µM (active)
- IC50 [26]: 2.73 µM (active)
- IC50 [27]: > 80 µM (inactive)
- IC50 [28]: 4.02 µM (active)

SMILES: CCCn1nc(NC(=O)COC)c2cc3cc(C)ccc3nc21
- EC50 [6]: 3.88 µM (active)
- EC50 [7]: 12.9 µM (active)
- EC50 [8]: > 120 µM (inconclusive)
- IC50 [26]: 2.71 µM (active)
- IC50 [28]: 2.89 µM (active)

SMILES: Cc1nc2c(C(=O)N3CCCCC3)cnn2c(C)c1Cc1ccccc1F
- EC50 [5]: 0.57 µM (active)
- EC50 [7]: < 0.1 µM (active)
- EC50 [9]: 0.267 µM (active)
- EC50 [10]: > 12 µM (not active)

SMILES: S=C(Nc1cccc(Cl)c1Cl)N1CCC2(CC1)OCCO2
- IC50 [20]: 50 µM (inactive)

SMILES: Cc1n(CC(O)COCc2ccccc2)c2ccccc2[n+]1C (centres undefined)
- IC50 [26]: 2.82 µM (active)
- IC50 [28]: 5.05 µM (active)

From ChEMBL document CHEMBL1201862, “PubChem BioAssay data set” (2004)
